One series has as its system HIV provirus. Kind of series: Quantification of proviral DNAs by PCR (integration of the provirus within the cell genome). The format is cell-based. The conditions noted are these: 10 μM. As for the experimental part:
I-152 is composed of MEA and NAC, which are capable of interacting with the early phases of the biological cycle of HIV. It is therefore capable of decreasing the integration of the provirus into the cell genome. In order to measure these effects, the proviral DNAs were quantified by PCR. The cells were lysed using 1 ml of the following lysis solution: 10 mM Tris HCl pH 8; 100 mM of EDTA pH 8; 0.5% of sodium dodecyl sulfate (SDS); 20 μg/ml of DNAse-free bovine pancreatic RNAse. 200 μg/ml of proteinase K are subsequently added to this suspension. The DNAs were subsequently extracted using 1 ml of an ice-cold saturated phenol solution and 1 ml of a […] solution.
The viral DNAs were then amplified by means of specific primers of the gag gene (SK01/SK39) and of a standard range of the 8E5 line, a chronically infected line, the cells of which carry a proviral copy. The β-globin gene was used as reporter gene in order to make sure of the quality of the DNA extraction.

A further series concerns MDMs. Kind of series: Cytotoxicity with respect to MDMs (neutral red). Format: cell-based, human. Here is the method: These tests are carried out systematically in parallel with the evaluation of the antiviral activity. In view of the oxidation/reduction capacity of the molecules tested, the test with the tetrazolium salt, which measures the activity of mitochondrial dehydrogenases, cannot be used.
Neutral red (NR) is a vital dye which makes it possible to measure the viability of adherent cells, such as MDMs. 600 μl of culture supernatant are removed and replaced with 400 μl of an NR solution (0.001% m/v in phosphate buffer, PBS, Boehringer Mannheim), filtered at 0.45 μm. The cells were incubated for 1 h at 37° C. and are subsequently washed (2×1 ml of PBS). The cells are then lysed at −20° C. with 200 μl of a 50% ethanol mixture comprising 1% of glacial acetic acid. The OD is measured twice with 100 μl of solution using a spectrophotometer.

A further series has as its system HIV-1/Ba-L. Kind of series: Antiviral activity in MDM cultures infected with HIV-1/Ba-L (RT activity in culture supernatants). The note with it: for antiviral activity (in words): second series, compounds dissolved in DMSO then diluted, MDMs, HIV-1/Ba-L; for EC50: Human immunodeficiency virus 1, BAL, MDMs infected with 10 000 TCID50s HIV-1/Ba-L (m.o.i. 0.01), read-out: inhibiting concentration (50% effective dose). The format is cell-based. As for the experimental part: A million monocytes in 1 ml of culture medium A are distributed in each well of a 48 well plate (Becton-Dickinson). The monocytes are left to differentiate into macrophages for 7 days. The macrophages thus differentiated are maintained in culture in medium A.
(§1) The MDMs were infected with the reference isolate with macrophage tropism, HIV-1/Ba-L. The PBMCs and the PBLs were infected with the reference isolate with lymphocyte tropism HIV-1 LAI. The viral stock were formed by amplifying these strains in vitro using umbilical blood mononucleated cells (UBM(s) preactivated with 1 μg/ml of PHA-P and cultured in medium A supplemented by 20 IU/ml of IL-2. In order to remove the soluble factors, such as cytokines, the culture supernatants were ultracentrifuged at 360 000 g for 5 min, and the pellets were resuspended in RPMI 1640. The viral stocks thus formed were subsequently titred using PBMCs activated with PHA-P. The TCID50s (50% Tissue Culture Infectious Dose) were calculated using the Kärber formula.
(§2) A million MDMs were infected with 10 000 TCID50s of the HIV-1/Ba-L strain. This amount of virus corresponds to a multiplicity of infection (m.o.i.) equal to 0.01. The excess of virus is removed 24 h after by washing with cells using RPMI 1640. The PBLs and the PBMCs were infected with 10 000 TCID50s of the HIV-1 LAI strain (moi=0.01). The cells were washed at the end of the second day of infection.
(§3) The viral replication is measured by assaying the RT activity in the culture supernatants according to the technique described by F. Rey et al. (Biochem. Biophys. Res. Comm., 1984, 121, 126-133). The radioactivity incorporated during the extension of the complementary strand of a poly-rA synthetic matrix in the presence of an oligo-dT12-18 primer and of a radiolabeled substrate, [^3H-methyl]thymidine-5′-triphosphate ([^3H]TPP), makes it possible to assay the enzymatic activity of RT. 400 μl of supernatant are ultracentrifuged at 360 000 g for 5 min. The RT is released by lysis of the viral pellet in 20 μl of NTE-Triton (100 mM NaCl, 10 mM Tris, 1 mM EDTA, 0.1% Triton X-100). These 20 μl are subsequently incubated with 40 μl of the following reaction mixture: 62.5 mM Tris, pH 7.8; 25 mM KCl; 6.25 mM MgCl2; 1.25 mM dithiothreitol (DTT); 2.5×10^−3 ODU oligo-dT12-18 and poly-rA, 5.55×10^−3 TBq {^3H]TTP. After one hour at 37° C., the enzymatic reaction is halted and the newly synthesized strands are precipitated for 20 min at 4° C. by the addition of 1 ml of sodium pyrophosphate (NaPP), of 50 μl of yeast DNA (0.1 mg/ml in 5% trichluoroacetic acid (TCA)), and of 4 ml of 20% TCA. The mixture is filtered using a cellulose acetate membrane (Millipore) which retains the radiolabeled poly-dT chains. The filter is washed using 20 ml of 5% TCA and the residual water is removed by addition of 25 μl of 70% ethanol. The filter is dried in an oven for 10 minutes at 80° C. and is then introduced into vials containing 8 ml of liquid scintillant. The β radioactivity is quantified by means of a scintillation counter (Packard Bell). The results are expressed in pM of [^3H]-TMP incorporated/h/ml of supernatant or, more simply, in cpm/h/ml.
The 50% effective doses (ED50) are calculated from the cumulative RT activities using the software “Dose-effects analysis with microcomputers” developed by J. Chou & T. C. Chou.

Another series deals with PBMCs. The conditions noted are these: PBMC cultures.
The subject of series [1] is total glutathione (GSH+GSSG). Kind of series: Total intracellular glutathione in quiescent PBMCs. Format: cell-based, human. The conditions noted are these: quiescent PBMCs; for effect on intracellular level of glutathione (in words): 24 h treatment.
Series [2] relates to HIV-1 LAI. The series is described as follows: Antiviral activity in quiescent or PHA-P activated PBLs infected with HIV-1 LAI. Format: cell-based. The conditions noted are these: quiescent PBLs or PBLs activated by PHA-P. Here is the method:
(§4) For some experiments, the PBMCs and the PBLs are activated for 48 h with 1 μg/ml of a mitogen, PHA-P (Difco Laboratories). The PBMCs and the PBLs are cultured in medium A (quiescent) or B (activated). The cells are cultured at 37° C. in an atmosphere saturated with moisture under 5% of CO2. The culture supernatants are removed and the culture media are replaced every three or four days. At each renewal of the culture media, the cell viability is evaluated by coloring with trypan blue or by microscopic observation.
as §1
A million MDMs were infected with 10 000 TCID50s of the HIV-1/Ba-L strain. This amount of virus corresponds to a multiplicity of infection (m.o.i.) equal to 0.01. The excess of virus is removed 24 h after by washing with cells using RPMI 1640. […]
The viral replication is measured by assaying the RT activity in the culture supernatants according to the technique described by F. Rey et al. (Biochem. Biophys. Res. Comm., 1984, 121, 126-133). The radioactivity incorporated during the extension of the complementary strand of a poly-rA synthetic matrix in the presence of an oligo-dT12-18 primer and of a radiolabeled substrate, [^3H-methyl]thymidine-5′-triphosphate ([^3H]TPP), makes it possible to assay the enzymatic activity of RT. […] The β radioactivity is quantified by means of a scintillation counter (Packard Bell). […]

Another series deals with PBLs. The conditions noted are these: PBL cultures.
Series [3] relates to HIV-1 LAI. Kind of series: Antiviral activity in quiescent or PHA-P activated PBMCs infected with HIV-1 LAI. Format: cell-based. The note with it: quiescent and activated PBMCs, at known cytotoxic doses (so in the source). As for the experimental part:
as §4, §1, §2, §3
The PBMCs, quiescent or activated by PHA-P, were infected by the reference strain with lymphocyte tropism HIV-1 LAI. All the culturings were carried out in parallel and the drugs were maintained throughout the culturing.

In a further series the test system is GSH. Kind of series: Intracellular GSH in MDMs infected with HIV-1/Ba-L. Format: cell-based, human. The note with it: conditions of stress. As for the experimental part: The intracellular GSH was assayed by means of the assay kit sold by Cayman. This method for assaying glutathione is an adaptation of that described by O. W. Griffith et al. (1980).
The compound I-152 and its derivatives are prepared extemporaneously by being dissolved in dimethyl sulfoxide (DMSO) at the concentration of 100 mM. They are subsequently stored at −20° C. after having been diluted 10 fold in phosphate buffer (PBS).

The target in series [4] is T1, RT of the HIV-1 LAI isolate (Human immunodeficiency virus type 1 group M subtype B, UniProt P03367).
T1 construct: The RT is released by lysis of the viral pellet in 20 μl of NTE-Triton; endogenous in cells; host or cells: Virions pelleted by ultracentrifugation from supernatants of infected cell cultures
Kind of series: Acellular test of the enzymatic activity of RT. Format: biochemical. The note with it: for decrease of RT activity: 500 μM. As for the experimental part:
as §3
The I-152 molecule is composed of NAC and MEA, which are capable of inhibiting the activity of RT (A. Bergamini et al., J. Clin. Invest., 1994, 93, 2251-2257). For this reason, the inhibiting capacity of I-152 with respect to the RT activity was measured using an acellular test. This test was carried out according to the protocol described above (§ 3.3.3.1.). In the reaction mixture, only the 20 μl of water are replaced by 20 μl of a concentration of I-152 or of the reference compounds. Heparin, known for inhibiting the activity of RT and of the other DNA polymerases, is used as positive control for inhibition.

`Cc1cn([C@H]2C[C@H](N=[N+]=[N-])[C@@H](CO)O2)c(=O)[nH]c1=O` [AZT, 3′-azido-3′-deoxythymidine, reference compound]: the “inhibition of integration of the provirus (in words)” value in the series on HIV provirus was “perfect”.
In the case of `CC(=O)N[C@@H](CSC(C)=O)C(=O)NCCSC(C)=O` [I-176, N-(N,S-bisacetyl-L-cysteinyl)-S-acetylcysteamine], the “cytotoxicity (in words)” value in the series with MDMs (FIG. 12, at the dose tested) is given as “cytotoxic”. Further, in the series with MDMs (MDMs, 150 μM, second series in DMSO), the “toxicity (in words)” value is listed as “slightly toxic”.
In the case of `CC(=O)N[C@@H](CSC(=O)C(C)C)C(=O)NCCSC(C)=O` [I-177, N-(N-acetyl-S-isobutyryl-L-cysteinyl)-S-acetylcysteamine], the “antiviral activity (in words)” value with HIV-1/Ba-L is “activities similar to that of I-152”.
On the same count and under the same terms, next, `CC(=O)N[C@@H](CSC(=O)C(C)(C)C)C(=O)NCCSC(C)=O` [I-178, N-(N-acetyl-S-pivaloyl-L-cysteinyl)-S-acetylcysteamine]: “activities similar to that of I-152”.
As for `NCCS` [MEA, cysteamine, reference compound], the “dose from which cytotoxic” value with PBMCs and in the series with PBLs was 500 µM in each case. The EC50 in the series with HIV-1/Ba-L was 0.3 mM. Besides, the “intracellular glutathione at high concentration (in words)” value in series [1] (500 μM) is on record as “decrease”. Moreover, in series [1], the “effect on intracellular level of glutathione (in words)” value is given as “does not significantly alter the intracellular level of glutathione”. Further, the “decrease of the viability of MDMs” value in the series on MDMs (MDMs, 500 μM) was 65%. For the same compound, the “cytotoxicity at antiviral doses (in words)” value with MDMs (MDMs) is given as “cytotoxic”. The “antiviral activity (in words)” value in the series on HIV-1 LAI [2] is given as “do not have or have a very slight antiviral activity”. The “inhibition of viral replication (in words)” value in the series with HIV-1 LAI [3] is on record as “do not inhibit viral replication”. Besides, in the series on GSH, the “regeneration of GSH under conditions of stress (in words)” value is on record as “ineffective”. Besides, the “decrease of RT activity” value was 29±1% in [4] (exp. 1) and 48±4% in series [4] (exp. 2).
Consider `CC(=O)N[C@@H](CS)C(=O)O` [NAC, N-Acetyl-L-cysteine], for which the EC50 in the series with HIV-1/Ba-L was 9.4 mM. In addition, the “effect on intracellular level of glutathione (in words)” value in series [1] is given as “better at increasing the intracellular level of glutathione”. Further, the “intracellular concentration of total glutathione” value in [1] (dose 15 mM) is roughly 2.64 ± 0.13 µM. Besides, the cytotoxicity in the series on MDMs (MDMs, 15 mM) was 70%; in the series on MDMs (MDMs, 40 mM) it was 91%. Besides, the “cytotoxicity at antiviral doses (in words)” value in the series on MDMs (MDMs) is given as “cytotoxic”. The “antiviral activity (in words)” value in the series with HIV-1 LAI [2] is listed as “do not have or have a very slight antiviral activity”. Also, the “inhibition of viral replication (in words)” value in the series with HIV-1 LAI [3] is “do not inhibit viral replication”. Besides, the “regeneration of GSH under conditions of stress (in words)” value with GSH is given as “ineffective”. Moreover, the “inhibiting activity with respect to RT (in words)” value in series [4] (acellular system) is “do not exhibit an inhibiting activity”.
Regarding heparin, in series [4] (1 mg/ml, acellular), the “inhibition of RT activity (in words)” value is given as “completely inhibits”.
